Activity calls are given as the source filed them. The rule behind the calls is not given here.
How the values were obtained:
[1] = target: T1, Neuronal acetylcholine receptor subunit alpha-7 (Homo sapiens, UniProt P36544); assay: Partial agonist activity at human alpha7 nAChR expressed in Xenopus laevis oocytes assessed as induction of maximum current response at 10 to 300 uM administered for 12 secs followed by washout period for 181 secs by voltage clamp technique; type: cell-based
[2] = target: T1, Neuronal acetylcholine receptor subunit alpha-7; assay: Silent agonist activity at human alpha7 nAChR expressed in Xenopus laevis oocytes assessed as induction of PNU-120596-stimulated peak current response at 10 uM administered for 12 secs followed by washout period for 181 secs by voltage clamp technique relative to acetylcholine; type: cell-based
[3] = target: T1, Neuronal acetylcholine receptor subunit alpha-7; assay: Antagonist activity at human alpha7 nAChR expressed in Xenopus laevis oocytes assessed as inhibition of acetylcholine-induced current response at 300 uM administered for 12 secs followed by washout period for 181 secs by voltage clamp technique relative to acetylcholine; type: cell-based
[4] = target: T1, Neuronal acetylcholine receptor subunit alpha-7; assay: Silent agonist activity at human alpha7 nAChR expressed in Xenopus laevis oocytes assessed as induction of PNU-120596-stimulated peak current response at 30 uM administered for 12 secs followed by washout period for 181 secs by voltage clamp technique relative to acetylcholine; type: cell-based
[5] = target: T1, Neuronal acetylcholine receptor subunit alpha-7; assay: Silent agonist activity at human alpha7 nAChR expressed in Xenopus laevis oocytes assessed as induction of PNU-120596-stimulated peak current response at 100 uM administered for 12 secs followed by washout period for 181 secs by voltage clamp technique relative to acetylcholine; type: cell-based
[6] = target: T1, Neuronal acetylcholine receptor subunit alpha-7; assay: Partial agonist activity at human alpha7 nAChR expressed in Xenopus laevis oocytes assessed as induction of maximum current response at 100 uM administered for 12 secs followed by washout period for 181 secs by voltage clamp technique relative to acetylcholine; type: cell-based
[7] = target: T2, Neuronal acetylcholine receptor; alpha3/beta2 (Homo sapiens) (UniProt P17787+P32297); assay: Antagonist activity at human […] alpha3beta2 nAChR expressed in Xenopus laevis oocytes assessed as inhibition of acetylcholine-induced current response at 30 uM administered for 6 secs followed by washout period for 241 secs by in presence of acetylcholine voltage clamp technique; type: cell-based
[8] = target: T1, Neuronal acetylcholine receptor subunit alpha-7; assay: Partial agonist activity at human alpha7 nAChR expressed in Xenopus laevis oocytes assessed as induction of maximum current response administered for 12 secs followed by washout period for 181 secs by voltage clamp technique; type: cell-based
[9] = target: T1, Neuronal acetylcholine receptor subunit alpha-7; assay: Antagonist activity at human alpha7 nAChR expressed in Xenopus laevis oocytes assessed as inhibition of acetylcholine-induced current response administered for 12 secs followed by washout period for 181 secs by voltage clamp technique; type: cell-based
[10] = target: T3, Neuronal acetylcholine receptor; alpha4/beta2 (Homo sapiens, UniProt P17787+P43681); assay: Agonist activity at human alpha4beta2 nAChR expressed in Xenopus laevis oocytes assessed as induction of current response administered for 6 secs followed by washout period for 241 secs by voltage clamp technique; type: cell-based
T3 sequence (P17787 whole entry): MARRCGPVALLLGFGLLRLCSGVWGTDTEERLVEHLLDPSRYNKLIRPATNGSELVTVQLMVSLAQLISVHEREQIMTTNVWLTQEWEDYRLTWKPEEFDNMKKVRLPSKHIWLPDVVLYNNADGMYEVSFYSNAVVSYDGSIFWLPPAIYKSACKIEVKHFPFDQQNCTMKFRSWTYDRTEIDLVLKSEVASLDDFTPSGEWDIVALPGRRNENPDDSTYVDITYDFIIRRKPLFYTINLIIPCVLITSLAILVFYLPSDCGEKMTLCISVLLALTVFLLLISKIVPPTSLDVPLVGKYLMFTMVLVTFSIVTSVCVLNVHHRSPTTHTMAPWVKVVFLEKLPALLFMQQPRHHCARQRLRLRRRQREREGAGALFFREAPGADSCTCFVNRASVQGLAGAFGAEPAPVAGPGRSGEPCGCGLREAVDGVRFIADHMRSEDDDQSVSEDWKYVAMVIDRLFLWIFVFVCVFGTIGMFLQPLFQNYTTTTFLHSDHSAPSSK
T3 sequence (P43681 whole entry): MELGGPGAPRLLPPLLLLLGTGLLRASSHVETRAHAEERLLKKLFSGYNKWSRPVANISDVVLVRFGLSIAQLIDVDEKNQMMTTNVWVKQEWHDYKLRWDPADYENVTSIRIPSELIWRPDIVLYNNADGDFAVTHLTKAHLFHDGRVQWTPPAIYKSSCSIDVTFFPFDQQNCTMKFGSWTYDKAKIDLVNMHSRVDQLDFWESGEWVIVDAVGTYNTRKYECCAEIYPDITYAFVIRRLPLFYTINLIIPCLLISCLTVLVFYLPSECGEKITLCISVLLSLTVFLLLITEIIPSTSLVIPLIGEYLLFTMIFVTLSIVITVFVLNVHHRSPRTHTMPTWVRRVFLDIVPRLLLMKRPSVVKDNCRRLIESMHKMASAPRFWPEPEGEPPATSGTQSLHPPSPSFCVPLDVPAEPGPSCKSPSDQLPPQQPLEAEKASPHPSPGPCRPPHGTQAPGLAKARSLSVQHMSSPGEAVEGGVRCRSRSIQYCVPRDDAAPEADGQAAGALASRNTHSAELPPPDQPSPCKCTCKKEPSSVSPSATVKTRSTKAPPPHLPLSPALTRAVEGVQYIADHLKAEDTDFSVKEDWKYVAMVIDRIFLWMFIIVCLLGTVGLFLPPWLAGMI

[11] = target: T3, Neuronal acetylcholine receptor; alpha4/beta2; assay: Antagonist activity at human alpha4beta2 nAChR expressed in Xenopus laevis oocytes assessed as inhibition of acetylcholine-induced current response administered for 6 secs followed by washout period for 241 secs by voltage clamp technique; type: cell-based
[12] = target: T2, Neuronal acetylcholine receptor; alpha3/beta2 (Homo sapiens); assay: Agonist activity at human […] alpha3beta2 nAChR expressed in Xenopus laevis oocytes assessed as induction of current response at 30 uM administered for 6 secs followed by washout period for 241 secs by in presence of acetylcholine voltage clamp technique; type: cell-based
[13] = target: T1, Neuronal acetylcholine receptor subunit alpha-7; assay: Induction of human alpha7 nAChR desensitization expressed in Xenopus laevis oocytes at 100 uM pretreated for 30 secs followed by PNU-120596 administered for 10 secs by voltage clamp technique relative to acetylcholine; type: cell-based
[14] = Hydrolytic stability of compound in Ringers-D2O buffer at 8.4 mM at pH 7.2 up to 60 days by [1H]-NMR spectroscopy; type: physicochemical; details: pH 7.2, 1440 h, 8400 µM
[15] = target: T2, Neuronal acetylcholine receptor; alpha3/beta2 (Homo sapiens); assay: Agonist activity at human ganglionic alpha3beta2 nAChR expressed in Xenopus laevis oocytes assessed as induction of current response at 30 uM administered for 6 secs followed by washout period for 241 secs by in presence of acetylcholine voltage clamp technique; type: cell-based
[16] = target: T2, Neuronal acetylcholine receptor; alpha3/beta2 (Homo sapiens); assay: Antagonist activity at human ganglionic alpha3beta2 nAChR expressed in Xenopus laevis oocytes assessed as inhibition of acetylcholine-induced current response at 100 uM administered for 6 secs followed by washout period for 241 secs by in presence of acetylcholine voltage clamp technique; type: cell-based
[17] = Hydrolytic stability of compound in water at 8.4 mM up to 60 days by [1H]-NMR spectroscopy; type: physicochemical; details: buffer, 1440 h, 8400 µM

T1 sequence (P36544 whole entry): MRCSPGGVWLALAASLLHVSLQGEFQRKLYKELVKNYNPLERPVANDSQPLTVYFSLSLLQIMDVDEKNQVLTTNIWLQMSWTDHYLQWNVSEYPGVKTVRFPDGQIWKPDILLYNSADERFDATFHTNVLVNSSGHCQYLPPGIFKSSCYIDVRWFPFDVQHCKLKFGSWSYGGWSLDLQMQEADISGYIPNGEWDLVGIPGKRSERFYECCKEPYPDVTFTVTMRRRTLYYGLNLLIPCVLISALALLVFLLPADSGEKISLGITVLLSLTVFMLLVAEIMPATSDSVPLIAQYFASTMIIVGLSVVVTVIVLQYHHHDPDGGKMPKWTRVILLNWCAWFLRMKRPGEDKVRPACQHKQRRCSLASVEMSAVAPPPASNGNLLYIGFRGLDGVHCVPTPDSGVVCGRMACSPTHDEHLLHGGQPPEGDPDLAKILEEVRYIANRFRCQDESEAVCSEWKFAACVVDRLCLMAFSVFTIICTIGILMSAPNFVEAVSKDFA

CCN1CCN(c2ccccc2)CC1
Activity [1]: inactive
Activity [2]: inactive
inhibition [3]: < 20%
Activity [4]: inactive
Activity [5]: inactive
fold change (FC) [6]: 0

CC[S+]1CCN(c2ccccc2)CC1.O=S(=O)([O-])C(F)(F)F
inhibition [7]: Active
EC50 [8]: 40 µM
IC50 [9]: 73 µM
Activity [10]: inactive
IC50 [11]: 51 µM
fold change (FC) [2]: 5
Activity [12]: inactive
fold change (FC) [4]: 3
Activity [13]: Active
Stability [14]: Stable
Activity [15]: inactive
inhibition [16]: Active
fold change (FC) [5]: 25
Stability [17]: Stable
fold change (FC) [6]: 0.07

CC[N+]1(c2ccccc2)CCSCC1
Activity [8]: inactive
Activity [2]: inactive
Activity [4]: inactive
Activity [5]: inactive

CC[N+]1(CC)CCN(c2ccccc2)CC1
IC50 [9]: 55 µM
Activity [2]: Active
Activity [4]: Active
Activity [5]: Active
fold change (FC) [6]: 0.47

From ChEMBL document CHEMBL4017516, “Sulfonium as a Surrogate for Ammonium: A New α7 Nicotinic Acetylcholine Receptor Partial Agonist with Desensitizing Activity” (J Med Chem, 2017)
